ChEMBL document CHEMBL1201862, “PubChem BioAssay data set” (2004)
The source made the active and inactive calls.

Tests used:
[1] = Luminescence Cell-Based Dose Confirmation HTS to Identify Activators of 5'UTR Stem-Loop Driven Alpha-Synuclein mRNA Translation in H4 Neuroglioblastoma Cells. [Related pubchem assays: 1829 (Project Summary), 1814 (Primary HTS)]; assay type: functional
[2] = Luminescence Cell-Based Dose Response HTS to Identify Activators of Luciferase Translation or Activity in H4 […] Cells. [Related pubchem assays: 1829 (Project Summary), 1814 (Primary HTS)]; assay type: functional
[3] = test system: H4; test: Luminescence Cell-Based Dose Response HTS to Identify Activators of 5'UTR Stem-Loop Driven Prion Protein mRNA Translation in H4 Neuroglioblastoma Cells. [Related pubchem assays: 1829 (Project Summary), 1814 (Primary HTS)]; assay type: functional; details: Homo sapiens
[4] = target: Cytochrome P450 2C9 (Homo sapiens, UniProt P11712)
[5] = growth suppression of PTEN-null colon cells, dose response, cell-based, HCT116 PTEN knockout (AID 1047); assay type: functional;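 further: HCT116 colon tumor cells with PTEN knocked out; cells exposed to compound for 60 hours before readout; potency for loss of cell viability measured by luminescence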
[6] = growth suppression of beta-catenin-knockout colon cells, dose response, cell-based, HCT116, human colon tumor (AID 1045); assay type: functional;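 further: HCT116 colon tumor cells with beta catenin knocked out; cells exposed to compound for 60 hours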
[7] = target: Cytochrome P450 2C19 (Homo sapiens, UniProt P33261); test: Cytochrome panel assay with activity outcomes. Panel member name: p450-cyp2c19 Compounds with AC50 equal or less than 10 uM are considered active; assay type: functional
[8] = target: Cytochrome P450 2D6 (Homo sapiens, UniProt P10635);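 further: CYP2D6 member of a cytochrome P450 panel assay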
[9] = target: T1, Cytochrome P450 1A2 (Homo sapiens, UniProt P05177);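 further: PubChem cytochrome P450 panel assay, CYP1A2 panel member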
T1 sequence (P05177 whole entry): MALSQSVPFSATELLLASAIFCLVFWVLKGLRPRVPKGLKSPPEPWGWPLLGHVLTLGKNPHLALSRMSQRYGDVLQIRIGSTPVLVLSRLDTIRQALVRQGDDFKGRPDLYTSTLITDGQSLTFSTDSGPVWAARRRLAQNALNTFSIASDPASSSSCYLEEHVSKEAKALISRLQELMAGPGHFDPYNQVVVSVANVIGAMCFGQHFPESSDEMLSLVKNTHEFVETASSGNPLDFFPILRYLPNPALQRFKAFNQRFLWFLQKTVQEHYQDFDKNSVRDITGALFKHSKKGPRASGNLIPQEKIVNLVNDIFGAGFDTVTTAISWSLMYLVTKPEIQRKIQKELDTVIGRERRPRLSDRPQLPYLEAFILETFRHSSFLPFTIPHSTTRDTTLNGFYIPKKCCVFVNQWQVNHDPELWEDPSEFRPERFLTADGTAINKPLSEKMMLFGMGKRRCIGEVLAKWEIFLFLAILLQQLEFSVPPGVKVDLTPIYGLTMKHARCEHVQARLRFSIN

[10] = Luminescence Cell-Based Dose Retest to Confirm Inhibitors of Cancer Stem Cells. [Related pubchem assays (depositor defined):AID2717, AID2721]; assay type: functional; details: Homo sapiens
[11] = inhibitors of intracellular T. cruzi replication, confirmation, NIH3T3 host cells, beta-gal luminescence (AID 2044); assay type: functional, cell-based;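 further: intracellular parasites grown in NIH/3T3 mouse fibroblasts as host cells; luminescent beta-galactosidase reporter signal from transgenic T. cruzi replicating inside host cells; inhibitors lower the luminescence signal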
[12] = cytotoxicity toward NIH3T3 fibroblasts, dose response, counter-screen, cell-based, ATP luminescence, mouse fibroblasts (AID 2010); assay type: functional;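 further: cells exposed to compound for about 90 hours before reading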
[13] = test system: Streptococcus sp. 'group A'; test: growth inhibition of control SK(-) GAS strain, dose response, counter-screen for streptokinase expression inhibitor project, luminescence, kanamycin, BacTiterGlo, confirmation (AID 1900); assay type: functional, organism-based
[14] = target: T2, Streptokinase A (Streptococcus pyogenes serotype M1, UniProt P10520); test: S. pyogenes streptokinase expression inhibitors, potency, dose response, plasminogen activation absorbance, OD405 (AID 1914); assay type: functional, Streptococcus pyogenes M1 GAS;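 further: secreted streptokinase activity via plasminogen activation per viability signal from cell pellet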
T2 sequence (P10520 whole entry): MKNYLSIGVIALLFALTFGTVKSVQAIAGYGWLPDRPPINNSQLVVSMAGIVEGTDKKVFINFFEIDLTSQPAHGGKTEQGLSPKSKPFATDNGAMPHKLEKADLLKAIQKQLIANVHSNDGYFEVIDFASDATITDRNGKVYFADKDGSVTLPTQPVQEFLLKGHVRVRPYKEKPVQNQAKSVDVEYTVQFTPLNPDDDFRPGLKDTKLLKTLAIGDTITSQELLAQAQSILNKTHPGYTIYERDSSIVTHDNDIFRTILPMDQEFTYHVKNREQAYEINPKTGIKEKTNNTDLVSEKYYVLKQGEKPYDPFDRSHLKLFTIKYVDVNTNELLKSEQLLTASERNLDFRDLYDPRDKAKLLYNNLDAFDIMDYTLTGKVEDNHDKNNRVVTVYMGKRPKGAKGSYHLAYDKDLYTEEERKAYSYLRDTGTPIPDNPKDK

[15] = test system: Streptococcus; test: Group A Streptococcus viability loss, dose response, counter-screen for streptokinase expression inhibitor project, luminescence, BacTiterGlo (AID 1915); assay type: functional, organism-based;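 further: potency for reduction of bacterial viability or growth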
[16] = test system: INS1; test: beta cell apoptosis inhibitors, cytokine rescue, dose response, luminescence, retest (AID 449756); assay type: functional, cell-based; details: Rattus norvegicus;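 further: cell death triggered by IL-1 beta plus TNF-alpha plus IFN-gamma mixture; protective hits raise ATP signal compared with cytokine alone wells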

Chain of Cytochrome P450 2C19 (P33261 whole entry): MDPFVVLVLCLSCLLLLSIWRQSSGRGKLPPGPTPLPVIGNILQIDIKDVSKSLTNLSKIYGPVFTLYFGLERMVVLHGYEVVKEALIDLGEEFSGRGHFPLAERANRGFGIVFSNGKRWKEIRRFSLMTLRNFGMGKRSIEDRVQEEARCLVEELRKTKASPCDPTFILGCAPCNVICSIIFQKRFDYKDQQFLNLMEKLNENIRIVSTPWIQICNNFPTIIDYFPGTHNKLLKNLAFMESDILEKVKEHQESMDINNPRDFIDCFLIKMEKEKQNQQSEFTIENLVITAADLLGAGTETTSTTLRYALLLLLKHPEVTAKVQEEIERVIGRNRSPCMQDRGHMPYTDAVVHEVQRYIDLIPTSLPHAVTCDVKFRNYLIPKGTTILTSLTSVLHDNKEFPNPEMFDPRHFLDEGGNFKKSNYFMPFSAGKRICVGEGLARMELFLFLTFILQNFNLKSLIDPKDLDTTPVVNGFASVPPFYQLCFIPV
Chain of Cytochrome P450 2C9 (P11712 whole entry): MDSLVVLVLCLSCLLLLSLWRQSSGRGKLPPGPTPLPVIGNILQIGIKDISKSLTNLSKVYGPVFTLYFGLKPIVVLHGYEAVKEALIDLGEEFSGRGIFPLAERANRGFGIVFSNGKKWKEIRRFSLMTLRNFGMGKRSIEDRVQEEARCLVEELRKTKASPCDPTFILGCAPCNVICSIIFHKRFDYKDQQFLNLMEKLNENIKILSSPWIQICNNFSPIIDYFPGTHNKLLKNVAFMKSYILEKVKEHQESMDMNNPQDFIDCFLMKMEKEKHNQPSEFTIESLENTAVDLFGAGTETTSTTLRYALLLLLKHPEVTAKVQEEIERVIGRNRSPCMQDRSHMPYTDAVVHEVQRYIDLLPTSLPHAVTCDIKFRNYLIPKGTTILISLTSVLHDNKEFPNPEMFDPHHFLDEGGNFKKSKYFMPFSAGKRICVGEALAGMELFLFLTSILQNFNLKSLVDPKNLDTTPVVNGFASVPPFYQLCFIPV
Chain of Cytochrome P450 2D6 (P10635 whole entry): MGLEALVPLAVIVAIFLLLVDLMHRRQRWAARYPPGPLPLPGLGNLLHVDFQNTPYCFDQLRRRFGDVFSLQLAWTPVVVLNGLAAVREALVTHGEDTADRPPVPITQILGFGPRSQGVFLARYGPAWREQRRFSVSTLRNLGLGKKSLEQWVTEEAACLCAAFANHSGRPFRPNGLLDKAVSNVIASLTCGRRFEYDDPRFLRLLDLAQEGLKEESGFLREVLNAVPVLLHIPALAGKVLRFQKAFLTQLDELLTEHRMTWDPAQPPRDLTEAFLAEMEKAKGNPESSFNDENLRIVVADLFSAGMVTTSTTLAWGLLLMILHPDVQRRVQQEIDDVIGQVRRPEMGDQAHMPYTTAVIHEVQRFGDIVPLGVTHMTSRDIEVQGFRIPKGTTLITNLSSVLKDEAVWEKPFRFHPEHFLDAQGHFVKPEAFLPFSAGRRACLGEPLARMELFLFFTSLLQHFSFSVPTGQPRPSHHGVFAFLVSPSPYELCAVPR

[O-][n+]1c2c([n+]([O-])c3cc(N4CCCC4)c(F)cc31)CCCC2
EC50 [1]: > 60 µM (not active)
EC50 [2]: 20.3 µM (active)
EC50 [3]: 7.53 µM (active)

CCc1c(C)nc2ccc(Br)cc2c1Cl
AC50 [4]: 11.2 µM (inconclusive)

CCCCNC(=O)CSc1nc2cc(OC)c(OC)cc2c(=O)n1Cc1ccc(OC)cc1
EC50 [5]: 6.66 µM (active)
EC50 [6]: 10.3 µM (active)
AC50 ([7]; read-out: AC50): 6.31 µM (inconclusive)

Cc1cc(F)ccc1S(=O)(=O)Nc1ccccc1C(=O)Nc1ccccc1N1CCOCC1
AC50 [8]: 15.8 µM (inconclusive)

COCCn1c(=O)c(CCc2ccccc2)nc2cnc(N(C)C)nc21
AC50 [8]: 10 µM (inconclusive)
AC50 [4]: 25.1 µM (inconclusive)

Cc1c(Br)c([N+](=O)[O-])nn1CC(=O)NCc1cccs1
AC50 ([7]; read-out: AC50): 5.01 µM (inconclusive)
AC50 [8]: 5.01 µM (inconclusive)
AC50 [9]: 14.1 µM (inconclusive)

Cc1ccc(-n2c(CCC(=O)O)ccc2-c2cccs2)cc1C
AC50 [4]: 7.08 µM (inconclusive)

CN1C(=O)C(O)(CC(=O)c2ccccc2O)c2cc(Br)ccc21 (stereo unspecified)
EC50 [5]: 18 µM (active)
EC50 [6]: 17 µM (active)

CN(Cc1ccco1)c1ncncc1-c1cccc(NS(C)(=O)=O)c1
AC50 [8]: 20 µM (inconclusive)
AC50 [4]: 0.501 µM (inconclusive)

CC(C)OC(=O)C(C#N)c1nc2ccccc2nc1N1CCN(Cc2ccccc2)CC1 (stereo unspecified)
AC50 [8]: 0.112 µM (inconclusive)

N#CCCn1c(=O)c(-c2cccc(C#N)c2)nc2cnc(Oc3ccccc3)nc21
AC50 [9]: 20 µM (inconclusive)
AC50 [4]: 39.8 µM (inconclusive)

CCc1cc2c(=O)c(-c3ccc4c(c3)OCCO4)c(C)oc2cc1OS(C)(=O)=O
EC50 [5]: 21.3 µM (active)
EC50 [6]: 28.1 µM (active)

CCCCSc1ncc(C(=O)OCC)c(N)n1
EC50 [2]: 0.125 µM (active)

O=C(CSCc1cccc(Cl)c1)Nc1ccccc1-c1ccccc1
AC50 [10]: 21.7 µM (active)

COc1ccc2cc3cc(C(=O)Nc4ccc5c(c4)OCO5)oc3nc2c1
AC50 [4]: 5.01 µM (inconclusive)

O=C(Cn1cc(SCc2ccccc2Cl)c2ccccc21)N1CCOCC1
EC50 [1]: 23.8 µM (active)
EC50 [2]: 8.21 µM (active)
EC50 [3]: 21 µM (active)

CCC(c1nnnn1Cc1ccco1)N(CCc1ccccc1)Cc1cc2ccc(OC)cc2nc1O (stereo unspecified)
EC50 [5]: 22.8 µM (active)
EC50 [6]: 23.6 µM (active)

O=c1c(-c2ccc(F)c(F)c2)nc2cncnc2n1Cc1ccccc1
AC50 ([7]; read-out: AC50): 0.0501 µM (inconclusive)

N#Cc1c(N2CCCC2)nsc1-c1ccccc1
EC50 [1]: 7.09 µM (active)
EC50 [2]: 12.5 µM (active)
EC50 [3]: 23.2 µM (active)

COc1cc2c(=O)n(Cc3ccco3)c(=O)n(CC(=O)c3ccc(Br)cc3)c2cc1OC
EC50 [5]: 8.57 µM (active)
EC50 [6]: 9.3 µM (active)

Cc1ccc(S[C@@H](CCN2CC[C@H](C(C)(C)C)CCC2=O)c2ccccc2)cc1
AC50 [10]: 2.64 µM (active)

COc1ccccc1-c1cncnc1Nc1ccc(F)cc1
AC50 [8]: 15.8 µM (inconclusive)

COc1ncc2nc(-c3cccs3)c(=O)n(CCc3ccccc3)c2n1
AC50 ([7]; read-out: AC50): 2.51 µM (inconclusive)

O=C(c1cc(O)nc2ccc(Br)cc12)N1CCC2(CC1)OCCO2
AC50 ([7]; read-out: AC50): 28.2 µM (inconclusive)
AC50 [4]: 39.8 µM (inconclusive)

O=C(CN1CCCCC1)Nc1ccc(Br)cc1C(=O)c1ccccc1Cl
AC50 [8]: 11.2 µM (inconclusive)

CC(=O)OC[C@@H]1O[C@@H](O/N=C2/C[C@@H](O)[C@@H](O)[C@@H]3[C@@H]4C(=O)N(C[C@@H]5CCCO5)C(=O)[C@H]4CC[C@H]23)[C@H](OC(C)=O)[C@H](OC(C)=O)[C@@H]1OC(C)=O
AC50 [8]: 5.01 µM (inconclusive)

Cc1noc(C)c1C(=O)N1CCC2(CCCN(CC(C)C)C2)CC1
AC50 ([7]; read-out: AC50): 39.8 µM (inconclusive)
AC50 [4]: 39.8 µM (inconclusive)

c1ccc(C(c2ccccc2)N2CCC3(CCNCC3)CC2)cc1
AC50 [4]: 31.6 µM (inconclusive)

Cc1ccc(C23CC4CC(CC(NC(=O)N5CCN(C)CC5)(C4)C2)C3)cc1
EC50 [5]: 18 µM (active)
EC50 [6]: 17.7 µM (active)

c1ccc(-c2nnn(CCN3CCCCC3)n2)cc1
AC50 [8]: 3.16 µM (inconclusive)
AC50 [9]: 5.01 µM (inconclusive)

COc1cccc(NC(=O)COC(=O)c2c3c(nc4ccccc24)CCC(C)C3)c1 (stereo unspecified)
EC50 [11]: 2.18 µM (active)
EC50 [5]: 8.9 µM (active)
EC50 [12]: > 60 µM (not active)
EC50 [6]: 14.4 µM (active)

CCC1CCCCN1C(=O)CSc1nc2c3ccccc3nc-2c(O)n1C (stereo unspecified)
EC50 [5]: 21.9 µM (active)
EC50 [6]: 21.2 µM (active)

Clc1ccc([C@@H](OCCN2CCCCC2)c2ccccc2)cc1
AC50 ([7]; read-out: AC50): 6.31 µM (inconclusive)
AC50 [9]: 12.6 µM (inconclusive)

O=C1CSC(c2ccccn2)N1c1ccc(Cl)c(Cl)c1 (stereo unspecified)
AC50 [4]: 20 µM (inconclusive)

CCOc1ccc(NC(=O)CN2CCN(S(=O)(=O)c3ccc(Cl)cc3)CC2)cc1
AC50 ([7]; read-out: AC50): 0.562 µM (inconclusive)
AC50 [4]: 2 µM (inconclusive)

O=C(CCn1nc(-c2ccc(Cl)cc2)ccc1=O)NCc1ccccn1
AC50 [9]: 15.8 µM (inconclusive)
AC50 [4]: 5.01 µM (inconclusive)

Clc1ccccc1-c1nnc2sc(-c3ccc4c(c3)OCO4)nn12
EC50 [1]: > 120 µM (not active)
EC50 [2]: 10.9 µM (active)
EC50 [3]: 57.6 µM (inconclusive)

COc1ccccc1CNS(=O)(=O)c1ccc2ncc(C(=O)O)c(O)c2c1
AC50 [9]: 10 µM (inconclusive)
AC50 [4]: 11.2 µM (inconclusive)

COc1ccc(CCNC(=O)CCN2C(=O)C(C)Oc3ccc(C)cc32)cc1OC (stereo unspecified)
AC50 [4]: 5.62 µM (inconclusive)

CC(C)(C)c1c2c(c(C(C)(C)C)c3c1OCN(Cc1ccccc1)C3)OCN(Cc1ccccc1)C2
AC50 [7]: inconclusive

C[C@H]1[C@H](C)CC[C@]2(C)CC[C@]3(C)C(=CC(=O)C4[C@@]5(C)CC[C@H](O)C(C)(C)C5CC[C@]43C)[C@H]12 (stereo partly specified)
AC50 [10]: 4.76 µM (active)

O=C(O)c1ccccc1/C=N\N=C1c2ccccc2-c2ccccc21
AC50 [4]: 7.94 µM (inconclusive)

O=C(CSc1nnc(-c2ccccn2)o1)Nc1cccc(Cl)c1
EC50 [2]: 4.83 µM (active)
EC50 [3]: > 120 µM (not active)

O=c1c(-c2cc(F)cc(F)c2)nc2cnc(N3CCNCC3)nc2n1C1CC1
AC50 ([7]; read-out: AC50): 20 µM (inconclusive)

C=C(C)COc1ccc(-c2nc(N)ncc2-c2ccc(Cl)cc2)c(O)c1
EC50 [13]: 6.33 µM (active)
EC50 [14]: > 150 µM (not active)
EC50 [15]: 8.12 µM (active)
AC50 [10]: 3.57 µM (active)

CCc1c(C2(O)CCCCC2)[nH]c2cc(C(F)(F)F)ccc12
AC50 [10]: 2.64 µM (active)
AC50 [16]: 7.52 µM (active)

c1cnc(Nc2nc(-c3ccc4ccccc4c3)cs2)nc1
AC50 [7]: inconclusive

c1ccc(N2CCC3(CCNCC3)CC2)cc1
AC50 [8]: 15.8 µM (inconclusive)

CNC(C)c1cc(OC)ccc1OC (stereo unspecified)
AC50 [8]: 25.1 µM (inconclusive)

CCc1ccccc1NC(=O)c1ccc(F)c(S(=O)(=O)N2CCC(C(N)=O)CC2)c1
AC50 ([7]; read-out: AC50): 31.6 µM (inconclusive)
AC50 [4]: 25.1 µM (inconclusive)

Cc1cccn2c(/C=N/OCc3ccc(F)cc3)c(-c3ccc(Cl)cc3)nc12
AC50 ([7]; read-out: AC50): 3.16 µM (inconclusive)

O=C(Cn1ccs/c1=N/C(=O)C(F)(F)F)c1ccccc1
EC50 [1]: 56.9 µM (active)
EC50 [2]: 47.9 µM (active)
EC50 [3]: 81.7 µM (inconclusive)
